From US9433211B2, “Antimicrobial agent” (TAIYO CORPORATION, priority 2012, dated 2016) come the findings set out here.

The structures appear in SMILES notation. Converted amounts (≈) assume the structure as drawn.

The test system of data set [1] is black mold (A. niger, JCM10254). The data set can be described thus: Verification test of antimicrobial effects (minimum inhibitory concentration) on black mold. It is filed as cell-based. As to conditions: for Minimum inhibitory concentration / MIC: A. niger, cultured at 30° C. aerobic four days, visual turbidity, 156-2500 ppm tested; for MIC: Aspergillus niger, JCM10254, 96 h; for antimicrobial activities, comparison in words: against black mold (A. niger), from the results in Table 1. The procedure: (§1) 0.5 ml of a previously sterilized culture medium (trade name “Potato dextrose liquid culture medium”, made by Nissui Pharmaceutical Co., Ltd. was placed into a 96-well deep type microplate, then the propanediol mono-β-hydroxycarboxylic acid esters (the present invention products 1 to 10), the glycerin mono β-hydroxydecanoic acid ester (comparative product 1), the β-hydroxydecanoic acid potassium (comparative product 2) prepared in the above descriptions of (1) to (5) as well as 1,2-octanediol (comparative product 3), 1,2-propanediol (comparative product 4) and 1,3-propanediol (comparative product 5) known as an auxiliary antiseptic agent for external preparations for skin were respectively added, and the culture medium was diluted in a step-wise manner so that the final concentration in the medium was 156 ppm, 312 ppm, 625 ppm, 1250 ppm, and 2500 ppm to prepare sample solutions.
(§2) To these sample solutions, 0.1 ml of each culture solution of blackmold (A. niger, JCM10254) and yeast (C. albicans, NBRC1594) at approximately 1×10^6 CFU/ml were added, and the solutions were cultured at 30° C. under an aerobic condition for four days. Antimicrobial effects were visually determined. The solutions were compared with test areas in which the above microorganisms had not been added. Test areas in which no turbidity due to growth of the microorganism was observed were determined to have antimicrobial effects, and the lowest concentration necessary for inhibiting the growth of the microorganism (hereinafter referred to as “minimum inhibitory concentration”) was measured.

Data set [2] has as its system yeast (C. albicans, NBRC1594). The data set is described as follows: Verification test of antimicrobial effects (minimum inhibitory concentration) on yeast. It is filed as cell-based. The settings on record: for Minimum inhibitory concentration / MIC: C. albicans, cultured at 30° C. aerobic four days, visual turbidity, 156-2500 ppm tested; for MIC: 96 h; for antimicrobial activities, comparison in words: against yeast (C. albicans), from the results in Table 1. The protocol: as §1, §2

Data set [3] in a line: Compounding property in cosmetic, pharmaceutical and industrial formulations. The data set is classed as physicochemical. The settings on record: 0.30 weight %. The procedure:
Glycerin, DPG, POE (60) hydrogenated castor oil, and 1,3-propanediol mono-β-hydroxydecanoic acid ester were mixed and dissolved by being heated to 70° C. (the resulting mixture was referred to as a mixture A). On the other hand, citrate acid Na, citric acid, glycine, alanine, hyaluronic acid Na, and water were individually mixed at room temperature (the resulting mixture was referred to as a mixture B). Then, the mixture A and the mixture B were combined and mixed at 50° C., and thus a lotion was obtained.
Cetanol, squalane, stearic acid, γ-tocopherol, BHT, polyethylene glycol monostearate (25EO), glycerin stearic acid monoester, and 1,3-propanediol mono-β-hydroxydecanoic acid ester were individually mixed and dissolved by being heated to 70° C. (the resulting mixture was referred to as a mixture A). On the other hand, 1,3-butanediol, carboxy vinyl polymer, and potassium hydroxide were individually mixed at room temperature (the resulting mixture was referred to as a mixture B). Then, the mixture A and the mixture B were combined and heated to 60° C. and were vigorously stirred and emulsified while being gradually added in small quantities to the purified water, and thus a milky lotion was obtained.
With regard to the compounding example 6, pantothenic acid, hyaluronic acid, thioxolone, hydrocortisone acetate, tocopherol, and minoxidil were mixed individually and dissolved by being heated to 70° C. (the resulting mixture was referred to as a mixture A). On the other hand, glycerin, polyoxyethylene glycol monoether, ethanol, and the present invention product 8 (1,3-propanediol mono-β-hydroxydecanoic acid ester) were mixed at room temperature (the resulting mixture was referred to as a mixture B). Then, the mixture A and the mixture B were combined and heated to 70° C. and were vigorously stirred while being added gradually in small quantities to water, and thus a hair growth liquid was obtained.
In preparing the compounding example 11, polyoxyethylene nonylphenylether, polyoxyethylene sorbitan monosterate, BHT, and fragrant material were mixed individually and dissolved by being heated to 80° C. (the resulting mixture was referred to as a mixture A). On the other hand, gellan gum, propylene glycol, the present invention product 8 (1,3-propanediol mono-β-hydroxydecanoic acid ester), and water were mixed at 80° C. (the resulting mixture was referred to as a mixture B). Then, the mixture B was gradually added in small quantities to the mixture A, heated to 80° C., and were vigorously stirred, and thus a transparent aqueous aromatic agent for vehicles was obtained.

[4] abbreviates: hair growth liquid (compounding example 6).
The mark [5] stands for this setting: transparent aqueous aromatic agent for vehicles (compounding example 11).

For `CCCCCCC(O)CC(=O)OCC(C)O` (stereo not drawn) [Present invention product 4, 1,2-propanediol mono-β-hydroxynonanoic acid ester], the Minimum inhibitory concentration in data set [1] and in data set [2] was 1250 ppm each time.
With `CCCCCCCCCC(O)CC(=O)OCCCO` (stereo not drawn) [Present invention product 6, 1,3-propanediol mono-β-hydroxydodecanoic acid ester], the MIC was 156 µg/mL (≈ 569 µM) in data set [1] and 312 µg/mL (≈ 1140 µM) in data set [2].
For `CCCCCCCC(O)CC(=O)OCC(C)O` (stereo not drawn) [Present invention product 3, 1,2-propanediol mono-β-hydroxydecanoic acid ester], in data set [1], inhibition of growth (MIC) required 312 µg/mL (≈ 1270 µM) and the “antimicrobial activities, comparison in words” value (“antimicrobial activities” below) is reported as “very stronger antimicrobial activities”. Besides, in data set [2], the minimum inhibitory concentration (MIC) stood at 625 µg/mL (≈ 2540 µM) and the “antimicrobial activities” value was “very stronger antimicrobial activities”.
Take `CCCCCCCCC(O)CC(=O)OCCCO` (stereo not drawn) [Present invention product 7, 1,3-propanediol mono-β-hydroxyundecanoic acid ester]: the MIC in data set [1] and in data set [2] was 312 µg/mL (≈ 1200 µM) throughout.
In data set [1], `CCCCCC(O)CC(=O)OCCCO` (stereo not drawn) [Present invention product 10, 1,3-propanediol mono-β-hydroxyoctanoic acid ester] showed a Minimum inhibitory concentration of 2500 ppm. In data set [2], the Minimum inhibitory concentration was greater than 2500 ppm and the “antimicrobial activities” value was “lower than 1,2-octanediol”.
Regarding `CC(O)CO` (stereo not shown) [Comparative product 4, 1,2-propanediol, reference compound], the Minimum inhibitory concentration in data set [1] and in data set [2] was greater than 2500 ppm each time. Moreover, the “antimicrobial activities” value in data set [1] and in data set [2] was “lower antimicrobial activities” in each case.
Take `OCCCO` [Comparative product 5, 1,3-propanediol, reference compound]: in data set [1], the Minimum inhibitory concentration was greater than 2500 ppm and the “antimicrobial activities” value is recorded as “lower antimicrobial activities”. Moreover, in data set [2], the Minimum inhibitory concentration was greater than 2500 ppm and the “antimicrobial activities” value is reported as “lower antimicrobial activities”.
For the compound `CCCCCCCC(O)CC(=O)OCC(O)CO` (stereo not drawn) [Comparative product 1, glycerin mono β-hydroxydecanoic acid ester, reference compound], the Minimum inhibitory concentration in data set [1] is listed as 2500 ppm; in data set [2], greater than 2500 ppm.
With `CCCCCCCC(O)CC(=O)O.[K]` (stereo not drawn) [Comparative product 2, β-hydroxydecanoic acid potassium, reference compound], the MIC in data set [1] amounted to 1250 µg/mL; in data set [2], 2500 µg/mL.
As to `CCCCCCC(O)CO` (stereo not shown) [Comparative product 3, 1,2-octanediol, reference compound], the MIC in data set [1] and in data set [2] was 2500 µg/mL (≈ 17100 µM) each time.
In the case of `CCCCCC(O)CC(=O)OCC(C)O` (stereo not drawn) [Present invention product 5, 1,2-propanediol mono-β-hydroxyoctanoic acid ester], in data set [1], the Minimum inhibitory concentration amounted to 2500 ppm. For the same compound, in data set [2], the Minimum inhibitory concentration is given as greater than 2500 ppm and the “antimicrobial activities” value is recorded as “lower than 1,2-octanediol”.
Consider `CCCCCCCC(O)CC(=O)OCCCO` (stereo not drawn) [Present invention product 8, 1,3-propanediol mono-β-hydroxydecanoic acid ester], for which the “compounding property: mixing with other components” value in data set [3] (setting [4]), in data set [3] (lotion) and in data set [3] (setting [5]) was “easily mixed with other components” in each case. For the same compound, the “compounding property: turbidity or precipitation in the obtained product” value in data set [3] (setting [4]), in data set [3] (lotion) and in data set [3] (setting [5]) was “not found” in each case. The MIC in data set [1] was 312 µg/mL (≈ 1270 µM); in data set [2], 625 µg/mL (≈ 2540 µM). Further, the “antimicrobial activities” value in data set [1] and in data set [2] was “very stronger antimicrobial activities” each time.
Regarding `CCCCCCCCC(O)CC(=O)OCC(C)O` (stereo not drawn) [Present invention product 2, 1,2-propanediol mono-β-hydroxyundecanoic acid ester], the MIC in data set [1] and in data set [2] was 312 µg/mL (≈ 1200 µM) throughout.
For the compound `CCCCCCC(O)CC(=O)OCCCO` (stereo not drawn) [Present invention product 9, 1,3-propanediol mono-β-hydroxynonanoic acid ester], the Minimum inhibitory concentration in data set [1] and in data set [2] was 1250 ppm each time.
On to `CCCCCCCCCC(O)CC(=O)OCC(C)O` (stereo not drawn) [Present invention product 1, 1,2-propanediol mono-β-hydroxydodecanoic acid ester], for which the MIC in data set [1] and in data set [2] was 312 µg/mL (≈ 1140 µM) in each case.
